The values that follow come from ChEMBL document CHEMBL1127015, “Centrally acting serotonergic and dopaminergic agents. 1. Synthesis and structure-activity relationships of 2,3,3a,4,5,9b-hexahydro-1H-benz[e]indole derivatives” (J Med Chem, 1993).

pIC50, pKi: −log10 of the molar value. A value given as a limit tells only on which side of the number the result lay.

The test system of test [1] is Felis catus. Kind of test: Maximum decrease of arterial blood pressure at sympathetic nerve activity (SND) in anesthetized cat has been observed following 1 mg/kg dose. It is filed as functional. Details: scale not given: the % may be the effect or the level left.
Test [2] relates to Felis catus. Kind of test: Maximum decrease of sympathetic nerve activity (SND) in anesthetized cat has been expressed as percent control. Type of test: functional. Details: scale not given: the % may be the effect or the level left.
Test [3] addresses T1, D(2) dopamine receptor (Homo sapiens, UniProt P14416). The test is described as follows: Intrinsic activity from GTP shift using membranes from CHO cells transfected with mammalian dopamine receptor D2. Type of test: cell membranes.
Test [4] addresses T2, D(2) dopamine receptor (Rattus norvegicus, UniProt P61169). The test is described as follows: Binding affinity against [3H]raclopride-labeled dopamine receptor D2 in rat striatum. Type of test: tissue-based.
Test [5] has as its system Mus musculus. Kind of test: Antagonism of apomorphine in reserpinized mice when a dose of 3.6 micro mol/kg is administered intraperitoneally. It is filed as functional.
The test system of test [6] is Mus musculus. Kind of test: Antagonism of apomorphine in reserpinized mice when a dose of 36 micro mol/kg is administered intraperitoneally. It is filed as functional.
In test [7] the test system is Mus musculus. The test is described as follows: Maximum decrease in temperature when compound is administered subcutaneously. Type of test: functional.
Test [8] deals with Mus musculus. Kind of test: Antagonism of apomorphine effects for 10-20 minutes in reserpinized mice following 0.4 umol/kg i.p. It is filed as functional.
Test [9] deals with Mus musculus. The test is described as follows: Antagonism of apomorphine for 10-20 minutes in reserpinized mice when a dose of 3.6 micro mol/kg is administered intraperitoneally. It is filed as functional.
Test [10] relates to Mus musculus. Kind of test: Antagonism of apomorphine effects for 0-10 minutes in reserpinized mice following 0.4 umol/kg i.p. The arrangement: unit not given beside the values. Type of test: functional.
Test [11] relates to Mus musculus. Kind of test: Antagonism of apomorphine for 0-10 minutes in reserpinized mice when a dose of 3.6 micro mol/kg is administered intraperitoneally. It is filed as functional.
Test [12] has as its system Mus musculus. Kind of test: Antagonism of apomorphine for 0-10 minutes in reserpinized mice when a dose of 36 micro mol/kg is administered intraperitoneally. Type of test: functional.
Test [13] has as its system Mus musculus. Kind of test: Ability to stimulate dopaminergic systems by effect on locomotor activity in reserpinized mice when a dose of 3.6 micro mol/kg is administered intraperitoneally. It is filed as functional.
Test [14] has as its system Mus musculus. Kind of test: Ability to stimulate dopaminergic systems by effect on locomotor activity in reserpinized mice when a dose of 36 micro mol/kg is administered intraperitoneally. It is filed as functional.
Test [15] has as its system Mus musculus. Kind of test: Increase in locomotor activity in reserpinized mice following 0.4 umol/kg i.p. Type of test: functional.
The subject of test [16] is Mus musculus. Kind of test: Antagonism of apomorphine for 10-20 minutes in reserpinized mice when a dose of 36 micro mol/kg is administered intraperitoneally. Type of test: functional.
The species entered for test [17] is Rattus norvegicus. Kind of test: Effect on the synthesis rates of serotonin (5-HTP accumulation) in the rat ventral limbic brain region at 10.7uMkg. It is filed as functional, Limbic system.
Test [18] is filed under the species Rattus norvegicus. The test is described as follows: Effect on the synthesis rates of serotonin (5-HTP accumulation) in the rat ventral limbic brain region at 10.7uMkg. value as percent change from the control. It is filed as functional, Limbic system.
The test system of test [19] is Mus musculus. The test is described as follows: Antagonism of apomorphine effects in reserpinized mice following 0.4 umol/kg i.p. Type of test: functional.
The test system of test [20] is Mus musculus. Kind of test: Effective dose on hypothermia in mouse when administered subcutaneously. It is filed as functional. Particulars: sc.
The subject of test [21] is Rattus norvegicus. Kind of test: Inhibition of firing rates of dopaminergic neurons in the substantia nigra pars compacta by intravenous injection in rats. Type of test: functional.
In test [22] the test system is Rattus norvegicus. The test is described as follows: Inhibition of firing rates of serotonergic neurons in the dorsal raphe nucleus by intravenous injection in rats. Type of test: functional.
The target in test [23] is T1, D(2) dopamine receptor. Kind of test: Binding affinity against [3H]U-86,170-labeled dopamine receptor D2 in cloned CHO cells. It is filed as cell-based.
Test [24] has as its system Mus musculus. Kind of test: Antagonism of apomorphine in reserpinized mice when a dose of 3.8 micro mol/kg is administered intraperitoneally. Type of test: functional.
Test [25] concerns Mus musculus. Kind of test: Antagonism of apomorphine in reserpinized mice when a dose of 38 micro mol/kg is administered intraperitoneally. It is filed as functional.
The subject of test [26] is Mus musculus. The test is described as follows: Antagonism of apomorphine for 0-10 minutes in reserpinized mice when a dose of 38 micro mol/kg is administered intraperitoneally. Type of test: functional.
In test [27] the test system is Mus musculus. Kind of test: Antagonism of apomorphine for 10-20 minutes in reserpinized mice when a dose of 3.8 micro mol/kg is administered intraperitoneally. Type of test: functional.
For test [28], the system named is Mus musculus. Kind of test: Ability to stimulate dopaminergic systems by effect on locomotor activity in reserpinized mice when a dose of 38 micro mol/kg is administered intraperitoneally. It is filed as functional.
The subject of test [29] is Mus musculus. Kind of test: Antagonism of apomorphine for 0-10 minutes in reserpinized mice when a dose of 3.8 micro mol/kg is administered intraperitoneally. Type of test: functional.
Test [30] has as its system Mus musculus. Kind of test: Ability to stimulate dopaminergic systems by effect on locomotor activity in reserpinized mice when a dose of 3.8 micro mol/kg is administered intraperitoneally. It is filed as functional.
The subject of test [31] is Mus musculus. The test is described as follows: Antagonism of apomorphine for 10-20 minutes in reserpinized mice when a dose of 38 micro mol/kg is administered intraperitoneally. It is filed as functional.
For test [32], the target named is T2, D(2) dopamine receptor. Kind of test: Inhibitory concentration against [3H]raclopride-labeled dopamine receptor D2 in rat striatum. Type of test: tissue-based.
For test [33], the system named is Mus musculus. The test is described as follows: Effective dose on hypothermia in mouse when administered through peroral route. Type of test: functional. The following applies: po.
Test [34] concerns Mus musculus. The test is described as follows: Maximum decrease in temperature when compound is administered through peroral route. It is filed as functional.
In test [35] the test system is Rattus norvegicus. The test is described as follows: Inhibition of firing rates of dopaminergic neurons in the substantia nigra pars compacta by intravenous injection in rats. Particulars: Rattus norvegicus, Substantia nigra pars compacta, iv; read-out: ED50. It is filed as functional.

T2 sequence (P61169 whole entry): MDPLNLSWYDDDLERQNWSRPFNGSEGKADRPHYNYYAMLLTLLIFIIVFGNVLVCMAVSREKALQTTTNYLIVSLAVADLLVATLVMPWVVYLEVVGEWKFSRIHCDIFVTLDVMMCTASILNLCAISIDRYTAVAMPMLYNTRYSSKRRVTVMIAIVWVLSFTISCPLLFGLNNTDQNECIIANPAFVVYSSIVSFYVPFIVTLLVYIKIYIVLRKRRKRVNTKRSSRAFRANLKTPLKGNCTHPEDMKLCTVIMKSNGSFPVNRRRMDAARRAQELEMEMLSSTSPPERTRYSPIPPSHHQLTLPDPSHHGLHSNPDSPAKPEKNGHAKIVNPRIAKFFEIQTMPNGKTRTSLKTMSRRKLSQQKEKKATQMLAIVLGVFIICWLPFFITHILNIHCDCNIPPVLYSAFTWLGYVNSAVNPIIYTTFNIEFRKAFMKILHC
T1 sequence (P14416 whole entry): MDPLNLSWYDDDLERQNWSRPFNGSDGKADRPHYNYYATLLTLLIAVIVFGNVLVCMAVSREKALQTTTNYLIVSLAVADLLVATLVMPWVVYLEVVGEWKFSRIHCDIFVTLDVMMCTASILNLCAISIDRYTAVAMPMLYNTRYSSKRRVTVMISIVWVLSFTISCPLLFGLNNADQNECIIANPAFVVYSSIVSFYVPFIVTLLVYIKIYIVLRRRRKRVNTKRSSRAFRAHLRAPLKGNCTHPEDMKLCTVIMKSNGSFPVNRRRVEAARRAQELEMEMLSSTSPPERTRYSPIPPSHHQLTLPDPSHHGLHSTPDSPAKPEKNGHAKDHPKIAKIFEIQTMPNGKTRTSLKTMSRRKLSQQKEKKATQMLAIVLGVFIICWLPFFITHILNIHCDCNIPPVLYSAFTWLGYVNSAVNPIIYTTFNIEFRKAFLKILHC

One may read the pKi as the Ki on a negative log10 scale, so that one unit is a factor of ten. The term ED50 denotes the midpoint of the dose-response relation. `C=CCN1CC[C@@H]2c3cccc(OC)c3CC[C@H]21` (racemic): the Control in test [1] was 61%; in test [2], 105%; in test [17], -51%; in test [18] it was 95%. Also, the Intrinsic activity in [3] is 0%. In addition, the pKi in test [4] is 7.00. Besides, the Locomotor activity in [5] was 142; in test [6], 13; in [8], 106; in test [9], 116; in [10] it was 78; in test [11], 76. In addition, the Locomotor activity in [12] came to 42; in [13], 81; in test [14] it was 49; in [15], 4; in [16], 54; in test [19] it was 156. In test [7], this compound returned a Max temperature decrease of 3.4. In test [20], this compound gave a median effective dose (ED50) of over 107 µmol/kg.
With `CCCN(CCC)C1CCc2cccc(O)c2C1` (configuration not stated) [8-OH-DPAT], in test [4], the negative-log Ki (pKi) is under 6.00. The 50% effective dose (ED50) in test [21] was found to be 2.25 µmol/kg; in [22] it was 0.005 µmol/kg.
With `C=CCN1CC[C@@H]2c3c(O)cccc3CC[C@H]21` (racemic), the Intrinsic activity in test [3] was found to be 13%. The same compound had a pKi in test [23] of 7.60. Besides, the Locomotor activity in test [24] is 5; in test [25], 9; in test [26], 49; in test [8], 66; in test [27] it was 53; in [28], 1. Besides, the Locomotor activity in test [10] was 46; in test [29], 71; in test [30] it was 5; in test [15], 26; in test [31], 33; in test [19], 73.
Turning to `COc1cccc2c1CC[C@@H]1[C@@H]2CCN1CC1CC1` (racemic), the pKi in [4] was under 5.00.
As usually defined, the pIC50 is −log10 of the IC50, conventionally taken in molar units. In the case of `CCCN1CC[C@H]2c3c(O)cccc3CC[C@H]21`, in test [32], the pIC50 is under 6.00. Also, the figures for the Max temperature decrease in test [7] and in [34] were 5.5 and 7.3, respectively. In addition, the ED50 in test [20] is 0.3 µmol/kg; in test [33], 4.9 µmol/kg.
`CN(C)CCCN1c2ccccc2Sc2ccc(Cl)cc21` [CHLORPROMAZINE]: in test [3], the Intrinsic activity was 5%.
Turning to `C=CCN1CC[C@@H]2c3cccc(OC)c3CC[C@@H]21`, the 50% effective dose (ED50) in test [35] was over 3.6 µmol/kg.
For the compound `C=CCN1CCC2c3cccc(O)c3CC[C@@H]21` (single isomer, unassigned; (+)), the Intrinsic activity in test [3] worked out at 50%. Besides, the pKi in test [23] was 7.23; in test [4], 6.59. For the same compound, the Locomotor activity in test [24] came to 62; in test [25], 62; in test [26] it was 20; in [8], 76; in [27], 90; in test [28] it was 17. Further, the Locomotor activity in test [10] turned out to be 50; in [29], 54; in test [30] it was 42; in [15] it was 11; in test [31], 37; in test [19], 79. Besides, the median effective dose (ED50) in test [35] is 2.82 µmol/kg.
In turn, `CCCN1CC[C@@H]2c3c(cccc3OC)CC[C@@H]21` gave a negative-log Ki (pKi) in test [4] of under 6.00.
